Data published in PubChem BioAssay AID2060501 (Molecular Pharmacology Branch, DTP, NCI, 2025).
Where “and” joins values, the source holds several entries; their conditions need not be identical. Identical values can stand only once.

Tested on: 282377-053-R-J1-PDC complex spheroids, viability
Experiment: Anticancer human tumor 282377-053-R-J1-PDC patient-derived colon adenocarcinoma cell line growth inhibition [GQUAD]
Settings: for viability, T/C: stronger effect = lower value
Source text: DNA G-quadruplex Stabilizer Agents in Combinations in Complex Spheroids
A high-throughput screen of multi-cell type tumor spheroids was designed to identify active combinations of DNA G-quadruplex stabilizer agents and targeted small molecules. Complex spheroids include a stromal component modeled by human endothelial cells (HUVEC) and fibroblasts modeled by human mesenchymal stem cells (MSCs). The concentration ranges selected for each drug and investigational agent were based upon clinically achievable concentrations if the clinical Cmax of the agent was known.
Compounds. The drugs and investigational agents: pidnarulex (CX-5461; NSC782164), APTO-253 (NSC789042), BRACO-19 (NSC847499), peposertib (NSC802822), ceralasertib (NSC780249), elimusertib (NSC800525), camonsertib (NSC841442), AZD-1390 (NSC803789), olaparib (NSC753686), talazoparib (NSC767125), ART-558 (NSC835418), sotorasib (NSC818433), MRTX-1133 (NSC836407), SN-38 (NSC673596), topotecan (NSC609699), etoposide (NSC141540), doxorubicin (NSC123127), gemcitabine (NSC613327), 5-fluorouracil (NSC19893), paclitaxel (NSC125973), vemurafenib (NSC761431), panobinostat (NSC761190), R-306465 (JNJ-16241199; NSC773264), adavosertib (NSC754352), TP-3654 (NSC805149), carboplatin (NSC241240), KSQ-4279 (NSC840948), and staurosporine (NSC755774) were obtained from the National Cancer Institute (NCI) Developmental Therapeutics Program Chemical Repository (34). The FDA-approved anticancer drug set is available from the NCI Developmental Therapeutics Program. […] The stock solutions were prepared in dimethyl sulfoxide (DMSO, Sigma-Aldrich, St. Louis, MO, cat. D2650) at 800-fold the tested concentration and stored at -70 degrees C prior to their use. All drugs and investigational agents were tested over a range starting from a high concentration at or near the clinical Cmax and decreasing in half-log increments. If the clinical Cmax for an agent had not been determined, the highest concentration tested was 10 microM.
2.3 Cell Culture. All cells were maintained in an incubator at 37 degrees C and 5% CO2 with 95% humidity. The PDC lines were cultured according to standard operating procedures established by the NCI PDMR. All PDCs were thawed and cultured in Matrigel-coated flasks prepared with a working solution of 1X Ham's F-12 nutrient mix, without supplementation (Invitrogen, cat. 11765054), 100 U/mL penicillin-streptomycin (Invitrogen, cat. 15140122), and 2.5% Matrigel (Corning Inc., cat. 354248) for the first three passages. The 857933-349-R-J2-PDC line was cultured in 6C/Colon 1B media, which includes advanced DMEM/F-12 (Thermo Fisher Scientific, cat. 12634028), 10 mM HEPES (Thermo Fisher Scientific, cat. 15630080), 1X GlutaMAX supplement (Thermo Fisher Scientific, cat. 35050061), 0.1 mg/mL primocin (InvivoGen, cat. ant-pm-2), 10% defined fetal bovine serum, heat inactivated (HyClone Laboratories Inc., cat. SH30070.03HI), 50% L-WRN conditioned media (ATCC, cat. CRL-3276), 1.25 mM N-Acetyl-L-cysteine (Sigma-Aldrich, cat. A9165), 10 mM nicotinamide (Sigma-Aldrich, cat. N0636), 1X B-27 supplement (Thermo Fisher Scientific, cat. 17504044), 1X N-2 supplement (Thermo Fisher Scientific, cat. 17502048), 10 microM Y-27632 dihydrochloride (Tocris Bioscience, cat. 1254), and 50 ng/mL human EGF recombinant protein (Thermo Fisher Scientific, cat. PHG0311). The 485176-168-R4-J1-PDC line was cultured in Panc media, which includes all 6C/Colon 1B media components plus 100 ng/mL human FGF-10 (Thermo Fisher Scientific, cat. 100-26), 500 nM SB-431542 (Selleckchem, cat. S1067), and gastrin (Tocris, cat. 3006).
[…]
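Also: spheroids exposed to compounds for 7 days before readout.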
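For viability, T/C in this document: percent of vehicle DMSO control viability with 100% = untreated-like growth.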

| SMILES | viability, T/C (compound 0.0316 µM) | viability, T/C (compound 0.1 µM) | viability, T/C (compound 0.316 µM) | viability, T/C (compound 1 µM) | viability, T/C (compound 3.16 µM) | viability, T/C (compound 10 µM) | IC50 (curve of compound) | viability, T/C (compound 0.000999 µM) | viability, T/C (compound 0.00316 µM) | viability, T/C (compound 0.00999 µM) | viability, T/C (compound 0.0999 µM) | IC50 (compound alone, run of 04/16/2024) | IC50 (compound alone, run of 04/22/2024) |
| --- | --- | --- | --- | --- | --- | --- | --- | --- | --- | --- | --- | --- | --- |
| C=CC(=O)N1CCN(c2nc(=O)n(-c3c(C)ccnc3C(C)C)c3nc(-c4c(O)cccc4F)c(F)cc23)C(C)C1 (centres undefined) | 114% and 108% and 103% | 92.4% and 90.8% and 92.9% | 104% and 91.5% and 93.6% | 91.5% and 93.8% and 96.1% | 105% and 95.6% and 103% | 97.3% and 80.3% and 106% | > 10 µM |  |  |  |  |  |  |
| CC(=O)O[C@H]1C(=O)[C@@]2(C)[C@H]([C@H](OC(=O)c3ccccc3)[C@]3(O)C[C@H](OC(=O)[C@H](O)[C@@H](NC(=O)c4ccccc4)c4ccccc4)C(C)=C1C3(C)C)[C@]1(OC(C)=O)CO[C@@H]1C[C@@H]2O | 114% and 62.1% and 42.4% | 98.5% and 13.8% and 13.7% | 89% and 15.7% and 17% | 4.35% and 20.7% and 17.9% | 0.15% and 21.9% and 16.7% |  |  |  |  |  |  |  |  |
| CC(C)n1c(=O)n(C)c2cnc3cc(F)c(-c4ccc(OCCCN5CCCCC5)nc4)cc3c21 | 104% and 100% and 77.6% | 107% and 87.5% and 98.7% | 94.4% and 95.6% and 105% | 94.8% and 106% and 92.8% | 102% and 97.1% and 111% | 113% and 80.3% and 102% | > 10 µM |  |  |  |  |  |  |
| CC1COCCN1c1cc(-c2ccnn2C)c2ccnc(-c3ccn[nH]3)c2n1 (centres undefined) | 76.8% and 96.3% and 95.7% | 80.2% and 78.9% and 53% | 61.4% and 49% and 55.4% | 43.9% and 49.3% and 38.2% | 29.3% and 33% and 26.9% | 20.9% and 28.2% and 23.2% | 0.696 µM and 0.555 µM and 0.247 µM |  |  |  |  |  |  |
| CC1COCCN1c1cc(C2(O)CC3CCC(C2)O3)c2cnn(-c3ccn[nH]3)c2n1 (centres undefined) | 80.7% and 77.9% and 79.5% | 70% and 87.8% and 83.6% | 61.8% and 55.8% and 62.1% | 33.2% and 34.6% and 34.8% | 24.2% and 20.5% and 35.2% | 16.9% and 16.5% and 24.2% | 0.491 µM and 0.478 µM and 0.53 µM |  |  |  |  |  |  |
| CC1COCCN1c1cc(C2(S(C)(=N)=O)CC2)nc(-c2ccnc3[nH]ccc23)n1 (centres undefined) | 96.3% and 86.8% and 105% | 101% and 80.1% and 81.3% | 100% and 97.5% and 101% | 62.2% and 81.9% and 77.9% | 86.1% and 70.7% and 78.6% | 42.4% and 60.9% and 49.9% | 8.36 µM and > 10 µM |  |  |  |  |  |  |
| CC[C@@]1(O)C(=O)OCc2c1cc1n(c2=O)Cc2cc3c(CN(C)C)c(O)ccc3nc2-1 | 89.3% and 95.4% and 117% |  | 57.4% and 106% and 60.5% |  |  |  | > 0.316 µM | 98.2% and 99.2% and 107% | 92.4% and 87.1% and 103% | 106% and 101% and 87.3% | 84% and 109% and 93.1% |  |  |
| CCc1c2c(nc3ccc(O)cc13)-c1cc3c(c(=O)n1C2)COC(=O)[C@]3(O)CC | 50.7% and 73% and 63.6% |  | 29.2% and 39% and 30.2% |  |  |  | 0.0384 µM and 0.178 µM and 0.0546 µM | 87.9% and 100% and 111% | 81.8% and 80.9% and 91% | 67.7% and 93.2% and 67% | 40.8% and 61.3% and 40.1% |  |  |
| COc1cc(C2c3cc4c(cc3C(OC3OC5COC(C)OC5C(O)C3O)C3COC(=O)C23)OCO4)cc(OC)c1O (centres undefined) | 111% and 82.8% and 104% | 90.5% and 97% and 92.2% | 111% and 90.5% and 98.7% | 99.6% and 110% and 104% | 61.1% and 67.3% and 96.7% | 56.5% and 50% and 72.2% | > 10 µM |  |  |  |  |  |  |
| COc1ccc([C@@H](O)c2cc(-c3ncnc4cc(N5CCOCC5)ccc34)c(F)cc2Cl)nn1 | 86.5% and 96.3% and 89.9% | 85.6% and 80.6% and 90.8% | 74.5% and 109% and 86.2% | 67.9% and 79.6% and 93.6% | 68.9% and 82.5% and 101% | 57.6% and 61.8% and 71.7% | > 10 µM |  |  |  |  |  |  |
| COc1cccc2c1C(=O)c1c(O)c3c(c(O)c1C2=O)CC(O)(C(=O)CO)CC3OC1CC(N)C(O)C(C)O1 (centres undefined) | 109% and 108% and 110% | 110% and 102% and 101% | 92.8% and 109% and 77.7% | 54.2% and 77.3% and 56% | 15.7% and 29.5% and 13.9% | 1.35% and 2.21% and 0.95% | 1.13 µM and 1.94 µM and 1.01 µM |  |  |  |  |  |  |
| Cc1[nH]c2ccc(F)cc2c1-c1nc2c3cccnc3c3ncccc3c2[nH]1 | 91.7% [middle of 12 runs] |  |  |  |  |  |  |  |  |  |  | > 10 µM and 8.36 µM and 8.06 µM | > 10 µM and 9.04 µM and 7.37 µM |
| Cc1[nH]c2ccccc2c1CCNCc1ccc(/C=C/C(=O)NO)cc1 | 97.4% and 118% and 105% |  |  |  |  |  | > 0.316 µM and 0.185 µM and 0.145 µM | 108% and 110% and 106% | 88.2% and 101% and 95.5% | 84.7% and 96.6% and 98.5% | 115% and 98.6% and 72.2% |  |  |
| Cc1cccc(N(C)C(=O)C2C(O)CCN2c2nc(C)cc(C(F)(F)F)c2C#N)c1 (centres undefined) | 121% and 97.5% and 105% | 83% and 85.8% and 99.7% | 103% and 89.3% and 99.5% | 89.3% and 97.7% and 105% | 98.2% and 99.2% and 94.4% | 80.9% and 80.7% and 90.8% | > 10 µM |  |  |  |  |  |  |
| Cn1ncnc1[C@H]1c2n[nH]c(=O)c3cc(F)cc(c23)N[C@@H]1c1ccc(F)cc1 | 85% and 109% and 106% |  | 96.5% and 113% and 105% |  |  |  | > 0.316 µM | 109% and 105% and 89.3% | 106% and 88.2% and 91.4% | 106% and 94.9% and 99.7% | 106% and 97.6% and 113% |  |  |
| Nc1ccn(C2OC(CO)C(O)C2(F)F)c(=O)n1 (centres undefined) | 97% and 108% and 101% | 76% and 78.1% and 78.7% | 37.7% and 50.4% and 35.4% | 34.4% (2×) and 26.7% | 25.4% and 37.8% and 20.9% | 18.3% and 20.1% and 17.3% | 0.235 µM and 0.382 µM and 0.219 µM |  |  |  |  |  |  |
| O=C(c1cc(Cc2n[nH]c(=O)c3ccccc23)ccc1F)N1CCN(C(=O)C2CC2)CC1 | 98.7% and 97.4% and 108% | 111% and 100% and 110% | 100% and 98.7% and 102% | 93.8% and 105% and 109% | 116% and 100% and 111% | 106% and 82.9% and 90.7% | > 10 µM |  |  |  |  |  |  |
| O=c1[nH]cc(F)c(=O)[nH]1 | 94.9% and 109% and 94.2% | 107% (2×) and 88.7% | 107% and 102% and 96.5% | 88.8% and 92.9% and 94.9% | 87.9% and 80.7% and 79.4% | 80.8% and 69.7% and 70.6% | > 10 µM |  |  |  |  |  |  |
